In patent US20100197650A1, “COMPOSITIONS AND METHODS OF TREATMENT COMPRISING CEFTAROLINE” (FOREST LABORATORIES HOLDINGS LTD., priority 2008, published 2010):
Converted amounts (≈) assume the structure as drawn. Where two headings read alike, the source gives them in different places. Marks after values point to notes of the source that are not given here.

Key:
[1] = system: AmpC-derepressed Enterobacter cloacae; experiment: microbe, parasite or virus in culture; format: cell-based; conditions: for MBC range / MIC range: E. cloacae (10) clinical isolates; for MBC / MIC: Enterobacter cloacae
ESBL-producing E. coli = experiment: Susceptibility testing MIC/MBC, broth microdilution (Example 2); format: cell-based, Escherichia coli; conditions: for MBC range / MIC range: E. coli (10) clinical isolates; for MBC / MIC: Escherichia coli; for MBC: read-out: MBC; for MIC: read-out: MIC
[2] = system: ESBL-producing Klebsiella pneumoniae; experiment: as above; format: cell-based; conditions: for MBC / MIC: Klebsiella pneumoniae; for MBC: read-out: MBC; for MIC: read-out: MIC
Klebsiella pneumoniae = experiment: MIC, broth microdilution (Example 1); format: cell-based
Protocol: (§1) Stock solutions of all antibacterial agents were prepared at 80-fold (80×) the final target concentration in the appropriate solvent and the solution was allowed to stand for 60 minutes. All antibacterial agents were in solution under these conditions. The final drug concentrations in the FIC assay plates were set to bracket the MIC value of each agent for each test organism, unless the strain was totally resistant to the test agent.
(§2) The test organisms were originally received from clinical sources, or from the American Type Culture Collection. Upon receipt, the isolates were streaked onto the appropriate growth medium: Chocolate Agar for H. influenzae, Tryptic Soy Agar II (Becton Dickinson, Sparks, Md.) supplemented with 5% defibrinated sheep blood for streptococci, and unsupplemented Tryptic Soy Agar II for all other organisms. Colonies were harvested from these plates and a cell suspension was prepared in Tryptic Soy Broth (Becton Dickinson) containing cryoprotectant. Aliquots were then frozen at −80° C. On the day prior to assay, the frozen seeds of the organisms to be tested in that session were thawed and streaked for isolation onto the appropriate agar medium plates and incubated overnight at 35° C.
(§3) The test medium for H. influenzae was Haemophilus Test Medium. Streptococci were tested in Mueller Hinton II Broth (Becton Dickinson; Lot 6235472) supplemented with 2% lysed horse blood (Cleveland Scientific, Bath, Ohio; Lot H88621). All other organisms were tested in Mueller Hinton II Broth (Becton Dickinson, Lot 6235472). The broth was prepared at 1.05× normal weight/volume to offset the 5% volume of the drugs in the final test plates.
(§4) In order to select the proper test concentrations for each drug combination, minimal inhibitory concentration (MIC) values were first determined using the broth microdilution method previously described (Clinical and Laboratory Standards Institute. Methods for Dilution Antimicrobial Susceptibility Tests for Bacteria That Grow Aerobically; Approved Standard—Seventh Edition. Clinical and Laboratory Standards Institute document M7-A7 [ISBN 1-56238-587-9]. Clinical and Laboratory Standards Institute, 940 West Valley Road, Suite 1400, Wayne, Pa. 19087-1898 USA, 2006).
(§5) The wells of standard 96-well microdilution plates (Falcon 3918) were filled with 150 μL of 100% DMSO using the Multidrop 384. These plates were used to prepare the drug “mother plates” which provided the serial drug dilutions for the drug combination plates. The Biomek 2000 was used to transfer 150 μl of each stock solution (80×) from the wells in Column 1 of a deep well plate to the corresponding wells in Column 1 of the mother plate and to make seven 2-fold serial dilutions. Two mother plates, one for each drug, were combined to form a “checkerboard” pattern by transfer of equal volumes (using a multi-channel pipette) to the drug combination plate. Row H and Column 8 each contained serial dilutions of one of the agents alone for determination of the MIC.
(§6) Plates were stacked 3 high, covered with a lid on the top plate, placed in plastic bags, and incubated at 35° C. for approximately 20 hours. Following incubation, the microplates were removed from the incubator and viewed from the bottom using a ScienceWare plate viewer. Prepared reading sheets were marked for the MIC of drug 1 (row H), the MIC of drug 2 (column 8) and the wells of the growth-no growth interface.

Escherichia coli = experiment: MIC, broth microdilution (Example 1); format: cell-based
Protocol: as §1, §2, §3, §4, §5, §6

Pseudomonas aeruginosa = experiment: MIC, broth microdilution (Example 1); format: cell-based
Protocol: as §1, §2, §3, §4, §5, §6

P. aeruginosa = experiment: Susceptibility testing MIC/MBC, broth microdilution (Example 2); format: cell-based, Pseudomonas aeruginosa; conditions: for MBC / MIC: Pseudomonas aeruginosa; for MBC: read-out: MBC; for MIC: read-out: MIC
Streptococcus pneumoniae = experiment: MIC, broth microdilution (Example 1); format: cell-based
Protocol: as §1, §2, §3, §4, §5, §6

Streptococcus pyogenes = experiment: MIC, broth microdilution (Example 1); format: cell-based; conditions: Streptococcus pyogenes, read-out: MIC
Protocol: as §1, §2, §3, §4, §5, §6

Haemophilus influenzae = experiment: MIC, broth microdilution (Example 1); format: cell-based; conditions: Haemophilus influenzae, read-out: MIC
Protocol: as §1, §2, §3, §4, §5, §6

[3] = K. pneumonia (10) clinical isolates
[4] = Klebsiella pneumoniae, K. pneumoniae 1340, read-out: MIC
[5] = Klebsiella pneumoniae, K. pneumoniae 1461, read-out: MIC
[6] = Escherichia coli, E. coli 1587, read-out: MIC
[7] = Escherichia coli, E. coli 2273 (ESBL), read-out: MIC
[8] = P. aeruginosa (20) clinical isolates

Compound: NCC[C@H](O)C(=O)N[C@@H]1C[C@H](N)[C@@H](O[C@H]2O[C@H](CN)[C@@H](O)[C@H](O)[C@H]2O)[C@H](O)[C@H]1O[C@H]1O[C@H](CO)[C@@H](O)[C@H](N)[C@H]1O [Amikacin]
- MBC range [1]: 1 to 8 µg/mL
- MIC range [1]: 0.5 to 4 µg/mL
- MBC ([1]; E. cloacae isolate no. 4073): 8 µg/mL (≈ 13.7 µM)
- MIC ([1]; E. cloacae isolate no. 4073): 1 µg/mL (≈ 1.71 µM)
- MBC ([1]; E. cloacae isolate no. 5420): 2 µg/mL (≈ 3.42 µM)
- MIC ([1]; E. cloacae isolate no. 5420): 1 µg/mL (≈ 1.71 µM)
- MBC range (ESBL-producing E. coli): 4 to 64 µg/mL
- MIC range (ESBL-producing E. coli): 1 to 16 µg/mL
- MBC (ESBL-producing E. coli; E. coli isolate no. 5401): 4 µg/mL (≈ 6.83 µM)
- MIC (ESBL-producing E. coli; E. coli isolate no. 5401): 2 µg/mL (≈ 3.42 µM)
- MBC (ESBL-producing E. coli; E. coli isolate no. 5411): 16 µg/mL (≈ 27.3 µM)
- MIC (ESBL-producing E. coli; E. coli isolate no. 5411): 8 µg/mL (≈ 13.7 µM)
- MBC range [2, 3]: 1 to 128 µg/mL
- MIC range [2, 3]: 1 to 32 µg/mL
- MBC ([2]; K. pneumonia isolate no. 5427): 2 µg/mL (≈ 3.42 µM)
- MIC ([2]; K. pneumonia isolate no. 5427): 2 µg/mL (≈ 3.42 µM)
- MBC ([2]; K. pneumonia isolate no. 5436): 2 µg/mL (≈ 3.42 µM)
- MIC ([2]; K. pneumonia isolate no. 5436): 1 µg/mL (≈ 1.71 µM)
- MIC (Klebsiella pneumoniae; [4]): 1 µg/mL
- MIC (Klebsiella pneumoniae; [5]): 1 µg/mL
- MIC (Escherichia coli; [6]): 4 µg/mL
- MIC (Escherichia coli; [7]): 8 µg/mL
- MIC (Pseudomonas aeruginosa; P. aeruginosa 2555): 8 µg/mL
- MIC (Pseudomonas aeruginosa; P. aeruginosa 2559): 4 µg/mL
- MBC range (P. aeruginosa; [8]): 2 to 64 µg/mL
- MIC range (P. aeruginosa; [8]): 2 to 16 µg/mL
- MBC (P. aeruginosa; P. aeruginosa isolate no. 796): 32 µg/mL (≈ 54.6 µM)
- MIC (P. aeruginosa; P. aeruginosa isolate no. 796): 16 µg/mL (≈ 27.3 µM)
- MBC (P. aeruginosa; P. aeruginosa isolate no. 956): 64 µg/mL (≈ 109 µM)
- MIC (P. aeruginosa; P. aeruginosa isolate no. 956): 4 µg/mL (≈ 6.83 µM)
- MBC (P. aeruginosa; P. aeruginosa isolate no. 1019): 4 µg/mL (≈ 6.83 µM)
- MIC (P. aeruginosa; P. aeruginosa isolate no. 1019): 4 µg/mL (≈ 6.83 µM)
- MBC (P. aeruginosa; P. aeruginosa isolate no. 1037): 4 µg/mL (≈ 6.83 µM)
- MIC (P. aeruginosa; P. aeruginosa isolate no. 1037): 2 µg/mL (≈ 3.42 µM)

Compound: C[C@H]1COc2c(N3CCN(C)CC3)c(F)cc3c(=O)c(C(=O)O)cn1c23 [Levofloxacin]
- MBC range [1]: 0.03 to 128 µg/mL
- MIC range [1]: 0.03 to 64 µg/mL
- MBC ([1]; E. cloacae isolate no. 4073): 0.06 µg/mL (≈ 0.166 µM)
- MIC ([1]; E. cloacae isolate no. 4073): 0.06 µg/mL (≈ 0.166 µM)
- MBC ([1]; E. cloacae isolate no. 5420): 0.06 µg/mL (≈ 0.166 µM)
- MIC ([1]; E. cloacae isolate no. 5420): 0.06 µg/mL (≈ 0.166 µM)
- MBC range (ESBL-producing E. coli): 0.06 to 32 µg/mL
- MIC range (ESBL-producing E. coli): 0.03 to 32 µg/mL
- MBC (ESBL-producing E. coli; E. coli isolate no. 5401): 32 µg/mL (≈ 88.6 µM)
- MIC (ESBL-producing E. coli; E. coli isolate no. 5401): 32 µg/mL (≈ 88.6 µM)
- MBC (ESBL-producing E. coli; E. coli isolate no. 5411): 16 µg/mL (≈ 44.3 µM)
- MIC (ESBL-producing E. coli; E. coli isolate no. 5411): 8 µg/mL (≈ 22.1 µM)
- MBC ([2]; K. pneumonia isolate no. 5427): 2 µg/mL (≈ 5.53 µM)
- MIC ([2]; K. pneumonia isolate no. 5427): 0.25 µg/mL (≈ 0.692 µM)
- MBC ([2]; K. pneumonia isolate no. 5436): 4 µg/mL (≈ 11.1 µM)
- MIC ([2]; K. pneumonia isolate no. 5436): 4 µg/mL (≈ 11.1 µM)
- MIC (Streptococcus pneumoniae; S. pneumoniae 0866 (PSSP)): 1 ^ μg/mL
- MIC (Streptococcus pneumoniae; S. pneumoniae 0869 (PSSP)): 1 ^ μg/mL
- MIC (Streptococcus pneumoniae; S. pneumoniae 0880 (PRSP)): >4^a μg/mL
- MIC (Streptococcus pneumoniae; S. pneumoniae 0884 (PRSP)): 1 ^ μg/mL
- MIC (Streptococcus pneumoniae; Streptococcus pneumoniae, PRSP, S. pneumoniae 0880 (PRSP), read-out: MIC): > 4 µg/mL
- MIC (Streptococcus pneumoniae; Streptococcus pneumoniae, PRSP, S. pneumoniae 0884 (PRSP), read-out: MIC): 1 µg/mL
- MIC (Streptococcus pneumoniae; Streptococcus pneumoniae, S. pneumoniae 0866 (PSSP), read-out: MIC): 1 µg/mL
- MIC (Streptococcus pneumoniae; Streptococcus pneumoniae, S. pneumoniae 0869 (PSSP), read-out: MIC): 1 µg/mL
- MIC (Klebsiella pneumoniae; K. pneumoniae 1461): >4^a μg/mL
- MIC (Klebsiella pneumoniae; [4]): 0.06 µg/mL
- MIC (Klebsiella pneumoniae; [5]): > 4 µg/mL
- MIC (Streptococcus pyogenes; S. pyogenes 0717): 0.5 µg/mL
- MIC (Streptococcus pyogenes; S. pyogenes 0722): 0.5 µg/mL
- MIC (Escherichia coli; E. coli 2273 (ESBL)): >4^a μg/mL
- MIC (Escherichia coli; [6]): 0.06 µg/mL
- MIC (Escherichia coli; [7]): > 4 µg/mL
- MIC (Haemophilus influenzae; H. influenzae 1224): 0.015 µg/mL
- MIC (Haemophilus influenzae; H. influenzae 2797 (BLNAR)): 0.015 µg/mL
- MIC (Haemophilus influenzae; H. influenzae 2798 (BLNAR)): 0.015 µg/mL
- MIC (Haemophilus influenzae; H. influenzae 2799 (BLNAR)): 0.015 µg/mL
- MIC range (P. aeruginosa; [8]): 0.25 to 32 µg/mL
- MBC (P. aeruginosa; P. aeruginosa isolate no. 796): 2 µg/mL (≈ 5.53 µM)
- MIC (P. aeruginosa; P. aeruginosa isolate no. 796): 1 µg/mL (≈ 2.77 µM)
- MBC (P. aeruginosa; P. aeruginosa isolate no. 956): 1 µg/mL (≈ 2.77 µM)
- MIC (P. aeruginosa; P. aeruginosa isolate no. 956): 0.5 µg/mL (≈ 1.38 µM)
- MBC (P. aeruginosa; P. aeruginosa isolate no. 1019): 1 µg/mL (≈ 2.77 µM)
- MIC (P. aeruginosa; P. aeruginosa isolate no. 1019): 0.5 µg/mL (≈ 1.38 µM)
- MBC (P. aeruginosa; P. aeruginosa isolate no. 1037): 0.5 µg/mL (≈ 1.38 µM)
- MIC (P. aeruginosa; P. aeruginosa isolate no. 1037): 0.25 µg/mL (≈ 0.692 µM)
